Patent EP4806897A1, “AZA-BRIDGED RING DERIVATIVE” (Chia Tai Tianqing Pharmaceutical Group Co., Ltd., priority 2023, dated 2025)

Key:
MOLM-13 cells = assay: In vitro cell activity assay (CCK-8 proliferation), MOLM-13; format: cell-based; details: Homo sapiens, CCK-8, 72-120 h, read-out: IC50 (nM) for inhibitory activity against proliferation of MOLM-13 cells
Procedure: (§1) MOLM-13 cells or MV-4-11 cells (source: Nanjing Cobioer Biosciences Co., Ltd.) in a good growth state were taken and seeded into a 96-well plate (100 µL/well) at 2000-10000 cells/well. After the cells were cultured overnight in a cell incubator at 37 °C, the compounds were subjected to gradient dilution and added using a pipettor, with 2 parallel replicate wells in each group. Meanwhile, a control group was set. After the cells were cultured in a cell incubator at 37 °C for another 72-120 h, the detection reagent CCK-8 (manufacturer: Dojindo Laboratories, Japan; 10 µL/well) was added. After the cells were cultured at 37 °C for another 3-5 h, absorbance values were measured at […] using a PerkinElmer Envision multi-functional microplate reader. Four-parameter analysis was performed in GraphPad Prism software to fit dose-response curves and calculate IC50 values. A represents that IC50 < 50 nM. Table 1. Inhibitory activity against cell proliferation

MV-4-11 cells = assay: In vitro cell activity assay (CCK-8 proliferation), MV-4-11; format: cell-based; details: Homo sapiens, MV4-11; CCK-8, 72-120 h; read-out: IC50 (nM) for inhibitory activity against proliferation of MV-4-11 cells
Procedure: as §1

Menin-MLL interaction = target: T1, Menin-MLL interaction (Homo sapiens, UniProt O00255); assay: Fluorescence polarization assay of Menin-MLL interaction; details: GST-MENIN (1-615 aa) 8 nM, FITC-MLL15-43 8 nM; read-out: IC50 (nM) for inhibitory activity against Menin-MLL protein binding
T1 construct: GST-MENIN (1-615 aa) and FITC-MLL15-43 were diluted with an FP buffer
T1 sequence (O00255 1-615 isoform O00255-1): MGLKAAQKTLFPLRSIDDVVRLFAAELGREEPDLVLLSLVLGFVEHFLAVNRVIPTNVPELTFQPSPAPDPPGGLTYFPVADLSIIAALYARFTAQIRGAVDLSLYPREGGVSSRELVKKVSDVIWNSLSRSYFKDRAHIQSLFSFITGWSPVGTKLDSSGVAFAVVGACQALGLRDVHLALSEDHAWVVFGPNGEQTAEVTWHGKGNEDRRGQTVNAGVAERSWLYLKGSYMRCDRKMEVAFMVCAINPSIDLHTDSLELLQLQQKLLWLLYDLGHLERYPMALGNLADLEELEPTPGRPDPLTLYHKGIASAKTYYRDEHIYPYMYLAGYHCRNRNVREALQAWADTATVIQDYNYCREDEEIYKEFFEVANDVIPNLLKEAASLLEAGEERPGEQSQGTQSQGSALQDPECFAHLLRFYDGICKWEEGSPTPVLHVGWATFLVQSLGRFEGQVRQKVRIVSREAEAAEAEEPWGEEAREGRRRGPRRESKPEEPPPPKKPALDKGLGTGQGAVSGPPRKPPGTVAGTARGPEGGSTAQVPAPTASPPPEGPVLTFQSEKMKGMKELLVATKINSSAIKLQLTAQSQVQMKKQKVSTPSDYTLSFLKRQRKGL
Procedure: The binding activity of the compounds for the menin protein was determined by a fluorescence polarization assay. GST-MENIN (1-615 aa) and FITC-MLL15-43 were diluted with an FP buffer (50 mM Tris-HCl pH 7.5, 50 mM NaCl, 1 mM DTT, 0.01% BSA), and the mixed solution of GST-MENIN (1-615 aa) at a final concentration of 8 nM and FITC-MLL15-43 at a final concentration of 8 nM was added to a black 384-well microtiter plate at 10 µL/well. The plate was centrifuged at 2500 rpm for 1 min and incubated at room temperature in the dark for 1 h. 5 µL of diluted compound (7 concentration points, 4-fold serial dilution, with blank control and negative control wells set) was added, and the plate was centrifuged at 2500 rpm for 1 min and incubated at room temperature in the dark for 3 h. After incubation, FP (480/535) values were measured using a PerkinElmer Envision multi-functional microplate reader, and the ability of the compounds to inhibit the Menin-MLL interaction was determined by calculating the inhibition rate (%) for each compound concentration according to formula 1; formula 1: inhibition rate (%) = 1 - (Maximum mP Control - mP of administration group)/(Maximum mP Control - minimum mP Control) × 100%. Four-parameter analysis was performed in GraphPad Prism software to fit dose-response curves and calculate IC50 values. A represents that IC50 < 50 nM. Table 2. Inhibitory activity against Menin-MLL protein binding

[1] = In vitro liver microsomal stability, mouse; details: mouse liver microsomes 0.5 mg/mL, compound 1 µM, 37 °C
Procedure: (§2) Liver microsome incubation samples were prepared by mixing a PBS buffer (pH 7.4), a liver microsome solution from various species (human, mouse, monkey, dog, and rat) (0.5 mg/mL), a test compound (final concentration: 1 µM), and an NADPH + MgCl2 solution, followed by incubation at 37 °C and 300 rpm. Samples were collected from the reaction solution at the time points of 15 min and 60 min. Zero-hour samples were prepared by mixing a PBS buffer (pH 7.4), a liver microsome solution (0.5 mg/mL), and a test compound. An acetonitrile solution containing an internal standard was added to the samples, and supernatants were prepared by protein precipitation, diluted, and then assayed by LC-MS/MS.

[2] = In vitro liver microsomal stability, human; details: human liver microsomes 0.5 mg/mL, compound 1 µM, 37 °C
Procedure: as §2

## C=C1C[C@@H]2CC[C@H]1[C@@H](C(=O)N1CCC3(CC1)CN(c1ncncc1Oc1ccc(F)cc1C(=O)N(CC)C(C)C)C3)N2 [Compound 2]
MOLM-13 cells
  IC50: < 50 nM
MV-4-11 cells
  IC50: < 50 nM
Menin-MLL interaction
  IC50: < 50 nM

## C=C1C[C@@H]2CC[C@H]1[C@@H](C(=O)N1CCC3(CC1)CN(c1ncncc1Oc1ccc(F)cc1-c1cccnc1C1CC1)C3)N2 [Compound 3]
MOLM-13 cells
  IC50: < 50 nM
MV-4-11 cells
  IC50: < 50 nM
Menin-MLL interaction
  IC50: < 50 nM

## C=C1C[C@@H]2CC[C@H]1[C@@H](C(=O)N1CCC3(CC1)CN(c1ncncc1Oc1ccc(F)cc1-c1ccnn1C(C)C)C3)N2 [Compound 4]
MOLM-13 cells
  IC50: < 50 nM
MV-4-11 cells
  IC50: < 50 nM
Menin-MLL interaction
  IC50: < 50 nM

## C=C1CC2CCC1C(C(=O)N1CCC3(CC1)CN(c1ncncc1Oc1ccc(F)cc1C(=O)N(C)C(C)C)C3)N2 (stereo not shown) [Compound 6]
MV-4-11 cells
  IC50: < 50 nM

## C=C1C[C@@H]2CC[C@H]1[C@@H](C(=O)N1CCC3(CC1)CN(c1ncnnc1Oc1ccc(F)cc1C(=O)N(CC)C(C)C)C3)N2 [Compound 27]
MOLM-13 cells
  IC50: < 50 nM
MV-4-11 cells
  IC50: < 50 nM
Menin-MLL interaction
  IC50: < 50 nM
[1]
  Residuals at 60 min (%): >60%
[2]
  Residuals at 60 min (%): >40%

## C=C1C[C@@H]2CC[C@H]1[C@@H](C(=O)N1CCC3(CC1)CN(c1ncnnc1Oc1ccc(F)cc1-c1cccnc1C1CC1)C3)N2 [Compound 31]
MOLM-13 cells
  IC50: < 50 nM
MV-4-11 cells
  IC50: < 50 nM
Menin-MLL interaction
  IC50: < 50 nM

## C=C1C[C@@H]2CC[C@H]1[C@@H](C(=O)N1CCC3(CC1)CN(c1ncnnc1Oc1ccc(F)cc1-c1ccnn1C(C)C)C3)N2 [Compound 32]
MV-4-11 cells
  IC50: < 50 nM
Menin-MLL interaction
  IC50: < 50 nM

## C=C1C[C@@H]2CC[C@H]1[C@@H](C(=O)N1CCC3(CC1)CN(c1ncnnc1Oc1ccc(F)cc1-c1cncnc1C1CC1)C3)N2 [Compound 33]
MV-4-11 cells
  IC50: < 50 nM
Menin-MLL interaction
  IC50: < 50 nM
[1]
  Residuals at 60 min (%): >60%

## C=C1CC2CCC1C(C(=O)N1CCC3(CC1)CN(c1ncnnc1Oc1ccc(F)cc1-c1cccnc1OC)C3)N2 (stereo not shown) [Compound 34]
MV-4-11 cells
  IC50: < 50 nM

## C=C1C[C@@H]2CC[C@H]1[C@@H](C(=O)N1CCC3(CC1)CN(c1ccnnc1Oc1ccc(F)cc1-c1cccnc1C1CC1)C3)N2 [Compound 35]
MOLM-13 cells
  IC50: < 50 nM
MV-4-11 cells
  IC50: < 50 nM
Menin-MLL interaction
  IC50: < 50 nM

## C=C1C[C@@H]2CC[C@H]1[C@@H](C(=O)N1CCC3(CC1)CN(c1ccnnc1Oc1ccc(F)cc1C(=O)N(CC)C(C)C)C3)N2 [Compound 36]
MOLM-13 cells
  IC50: < 50 nM
MV-4-11 cells
  IC50: < 50 nM
Menin-MLL interaction
  IC50: < 50 nM

## C=C1C[C@@H]2CC[C@H]1[C@@H](C(=O)N1CCC3(CC1)CN(c1ncnnc1Oc1ccc(F)cc1C(=O)N1C(C)CCCC1C)C3)N2 (stereo partly shown) [Compound 46]
MV-4-11 cells
  IC50: < 50 nM
Menin-MLL interaction
  IC50: < 50 nM

## C=C1C[C@@H]2CC[C@H]1[C@@H](C(=O)N1CCC3(CC1)CN(c1ncnnc1Oc1ccc(F)cc1-c1cnccc1OC)C3)N2 [Compound 48]
Menin-MLL interaction
  IC50: < 50 nM
[1]
  Residuals at 60 min (%): >60%
[2]
  Residuals at 60 min (%): >40%

## C=C1C[C@@H]2CC[C@H]1[C@@H](C(=O)N1CCC3(CC1)CN(c1ncnnc1Oc1ccc(F)cc1C(=O)N(C(C)C)C(C)C)C3)N2 [Compound 50]
MOLM-13 cells
  IC50: < 50 nM
MV-4-11 cells
  IC50: < 50 nM
Menin-MLL interaction
  IC50: < 50 nM

## C=C1C[C@@H]2CC[C@H]1[C@@H](C(=O)N1CCC3(CC1)CN(c1ncnnc1Oc1ccc(F)cc1-c1cc(C(F)(F)F)cnc1C1CC1)C3)N2 [Compound 54]
MOLM-13 cells
  IC50: < 50 nM
MV-4-11 cells
  IC50: < 50 nM
Menin-MLL interaction
  IC50: < 50 nM

## C=C1C[C@@H]2CC[C@H]1[C@@H](C(=O)N1CC3(C1)CN(c1ncnnc1Oc1ccc(F)cc1C(=O)N(CC)C(C)C)C3)N2 [Compound 56]
MOLM-13 cells
  IC50: < 50 nM
MV-4-11 cells
  IC50: < 50 nM
Menin-MLL interaction
  IC50: < 50 nM
[2]
  Residuals at 60 min (%): >40%

## C=C1CC2CCC1C(C(=O)N1CCC3(CC1)CN(c1ncnnc1Oc1c(F)cc(F)cc1-c1cccnc1C1CC1)C3)N2 (stereo not shown) [Compound 58]
MV-4-11 cells
  IC50: < 50 nM

## C=C1C[C@@H]2CC[C@H]1[C@@H](C(=O)N1CCC3(CC1)CN(c1ncnnc1Oc1ccc(F)cc1-c1ccc(O)nc1C1CC1)C3)N2 [Compound 64]
MV-4-11 cells
  IC50: < 50 nM
Menin-MLL interaction
  IC50: < 50 nM
[1]
  Residuals at 60 min (%): >60%
[2]
  Residuals at 60 min (%): >40%

## C=C1CC2CCC1C(C(=O)N1CCC3(CC1)CN(c1ncnnc1Oc1ccc(F)cc1-c1nccn1C(C)C)C3)N2 (stereo not shown) [Compound 65]
MV-4-11 cells
  IC50: < 50 nM

## C=C1CC2CCC1C(C(=O)N1CCC3(CC1)CN(c1ncnnc1Oc1ccc(F)cc1-c1nccnc1C1CC1)C3)N2 (stereo not shown) [Compound 66]
MV-4-11 cells
  IC50: < 50 nM

## C=C1C[C@@H]2CC[C@H]1[C@@H](C(=O)N1CC3(C1)CN(c1ncnnc1Oc1ccc(F)cc1-c1cccnc1C1CC1)C3)N2 [Compound 67]
MOLM-13 cells
  IC50: < 50 nM
MV-4-11 cells
  IC50: < 50 nM
Menin-MLL interaction
  IC50: < 50 nM

## C=C1CC2CCC1C(C(=O)N1CCC3(CC1)CN(c1ncnnc1Oc1ccc(F)cc1-c1ccnn1C1CC1)C3)N2 (stereo not shown) [Compound 70]
MV-4-11 cells
  IC50: < 50 nM

## C=C1C[C@@H]2CC[C@H]1[C@@H](C(=O)N1CC3(C1)CN(c1ncnnc1Oc1ccc(F)cc1-c1ccnn1C(C)C)C3)N2 [Compound 71]
MOLM-13 cells
  IC50: < 50 nM
MV-4-11 cells
  IC50: < 50 nM
Menin-MLL interaction
  IC50: < 50 nM

## C=C1C[C@@H]2CC[C@H]1[C@@H](C(=O)N1CC3(C1)CN(c1ncnnc1Oc1ccc(F)cc1-c1cncnc1C1CC1)C3)N2 [Compound 73]
MOLM-13 cells
  IC50: < 50 nM
MV-4-11 cells
  IC50: < 50 nM
Menin-MLL interaction
  IC50: < 50 nM
[1]
  Residuals at 60 min (%): >60%

## C=C1C[C@@H]2CC[C@H]1[C@@H](C(=O)N1CCC3(CC1)CN(c1ncnnc1Oc1ccc(F)cc1-c1ccnnc1C1CC1)C3)N2 [Compound 74]
MOLM-13 cells
  IC50: < 50 nM
MV-4-11 cells
  IC50: < 50 nM
Menin-MLL interaction
  IC50: < 50 nM

## C=C1CC2CCC1C(C(=O)N1CCCC3(CC1)CN(c1ncncc1Oc1ccc(F)cc1-c1cccnc1C1CC1)C3)N2 (stereo not shown) [Compound 76]
MOLM-13 cells
  IC50: < 50 nM
MV-4-11 cells
  IC50: < 50 nM

## C=C1CC2CCC1C(C(=O)N1CCCC3(CC1)CN(c1ncncc1Oc1ccc(F)cc1-c1cncnc1C1CC1)C3)N2 (stereo not shown) [Compound 77]
MOLM-13 cells
  IC50: < 50 nM
MV-4-11 cells
  IC50: < 50 nM
